{
  "source": "patent US20210369691A1",
  "about": "“METHODS AND COMPOSITIONS FOR IMPROVING BONE MARROW HEMATOPOIETIC FUNCTIONS” (Sun Yat-Sen University, priority 2018, published 2021)",
  "key": {"[1]": {"test_system": "hematopoietic stem cells", "experiment": "Serial transplantation repopulation assay of bone marrow cells after 5FU and ABC294640 treatment", "format": "in vivo, mice", "source_text": "FIG. 28. illustrates the quantification of functional HSCs by transplantation assay. 2×10^5 bone marrow cells from C57BL/6J mice after 5FU and ABC294640 or vehicle control treatment were transplanted into […] mice along with 2×10^5 recipient bone marrow cells. 1×10^6 bone marrow cells from primary or secondary recipient mice were transplanted into […] mice in secondary or tertiary recipients respectively. PB analysis for total engrafted donor cells at the indicated number of weeks after transplantation. FIG. 29. illustrates the percentage of donor-derived B, T and myeloid lineage cells at 16 weeks after transplantation. Repopulation analyses was also performed to investigate whether ABC294640 treatment functionally promotes HSC regeneration after chemotherapeutic stress."}, "[2]": {"test_system": "hematopoietic stem cells", "experiment": "Hematopoietic stem cell number and cell cycle in uninjured mice after ABC294640 treatment", "format": "in vivo", "details": "vs solvent control", "source_text": "FIG. 27. illustrates the absolute number of HSPCs (LT-HSC, ST-HSC, MPP and CD150HSC) in the bone marrow (a) and cell cycle analysis of CD150 HSCs (b) in bone marrow from C57BL/6J mice after ABC294640 or solvent control treatment (n=5 mice). Data represent mean±s.d. Two-tailed Student's t-tests were used to assess statistical significance. *P<0.05, **P<0.01, ***P<0.001. To analyze whether Sphk2 inhibitor is effective in expanding hematopoietic stem cell number and enhance their function. Twenty 8-week-old C57 mice (purchased from Laboratory Animal Center, Sun Yat-sen University) were selected for the experiment. The mice were divided evenly into an inhibitor treatment group and a control group. The mice were injected intraperitoneally with ABC294640 (inhibitor treatment group) or solvent control (1:1 physiological saline: PEG400) solution (control group) every other day. 14 days after the first injection, bone marrow cells were harvested from both groups, and were analyzed for the number of hematopoietic stem cells, with methods and analysis as described in Example 1. To evaluate the hematopoietic function of the hematopoietic stem cells, 2×10^5 bone marrow cells from Sphk2 inhibitor or solvent control treated mice were transplanted into irradiated recipients (as described in Example 13). Peripheral blood was collected from the tail vein every 4 weeks after transplantation. The hematopoietic repopulation function was examined from donor-derived blood cells. The Sphk2 inhibitor was prepared as described in Example 4. Briefly, ABC294640 was purchased from Selleck and dissolved in dimethyl sulfoxide (DMSO), which was finally diluted with a mixture solution of polyethylene glycol 400 (PEG400) and physiological saline (1:1) to be administered at a dose of 10 mg/kg. T-test analysis was carried out using Graphpad6.0, and differences were considered statistically significant when *P<0.05, **P<0.01 and ***P<0.001."}, "[3]": {"test_system": "hematopoietic stem cells", "experiment": "Hematopoietic stem cell number after bone marrow transplantation", "format": "in vivo, mice", "details": "35 days after bone marrow transplantation (900 cGy); ABC294640 10 mg/kg i.p. every other day; **P<0.01; FIG. 10", "description": "Twenty-five 8-week-old C57 mice (purchased from Laboratory Animal Center, Sun Yat-sen University) were selected and kept in a specific pathogen free (SPF) environment. 5 mice were randomly selected and sacrificed by cervical dislocation. Femurs and tibias were taken and the bone marrow was obtained from the bone marrow cavity with an 1 ml syringe. Bone marrow was dispersed to form a single cell suspension and lysed with red blood cell lysis buffer for 2 min to remove red blood cells, followed by filtering through a 70 μm filter screen to obtain a single cell suspension. The other 20 mice were treated with X-ray radiation at a dose of 900 cGy, and were injected with 400,000 of the prepared bone marrow single cell suspension via tail vein, respectively. Then, the recipient mice were divided evenly into 2 groups, and mice of the ABC294640 treatment group were subjected to intraperitoneal injection of ABC294640 every other day. Mice in the control group was injected with a solvent solution control (1:1 of physiological saline: PEG400) solution. […] Statistical quantification was performed to determine the number of hematopoietic stem cells using the molecular marker system Lin-Sca-1+c-Kit+CD150+CD48− in combination with flow cytometry. […]"}, "[4]": {"test_system": "white blood cells", "experiment": "White blood cell recovery after bone marrow transplantation", "format": "in vivo, mice", "details": "7-35 days after bone marrow transplantation; ABC294640 10 mg/kg every other day; vs solvent control", "description": "Twenty-five 8-week-old C57 mice (purchased from Laboratory Animal Center, Sun Yat-sen University) were selected and kept in a specific pathogen free (SPF) environment. 5 mice were randomly selected and sacrificed by cervical dislocation. Femurs and tibias were taken and the bone marrow was obtained from the bone marrow cavity with an 1 ml syringe. Bone marrow was dispersed to form a single cell suspension and lysed with red blood cell lysis buffer for 2 min to remove red blood cells, followed by filtering through a 70 μm filter screen to obtain a single cell suspension. The other 20 mice were treated with X-ray radiation at a dose of 900 cGy, and were injected with 400,000 of the prepared bone marrow single cell suspension via tail vein, respectively. Then, the recipient mice were divided evenly into 2 groups, and mice of the ABC294640 treatment group were subjected to intraperitoneal injection of ABC294640 every other day. Mice in the control group was injected with a solvent solution control (1:1 of physiological saline: PEG400) solution. ABC294640 was purchased from Selleck and dissolved in dimethyl sulfoxide (DMSO), and diluted with a mixture solution of polyethylene glycol 400 (PEG400) and physiological saline (1:1) to be administered at a dose of 10 mg/kg.\nPreparation of SphK2 inhibitors was as described in Example 10. […]"}, "[5]": {"details": "16 weeks after transplantation, FIG. 29"}, "[6]": {"details": "at 16 weeks, donor bone marrow after 5FU and ABC294640 vs solvent control, FIG. 28"}},
  "data": [
    {"smiles": "O=C(NCc1ccncc1)C12CC3CC(C1)CC(c1ccc(Cl)cc1)(C3)C2", "note": "[ABC294640, 3-(4-chloro-phenyl)-adamantane-1-carboxylic acid (pyridin-4-ylmethyl)-amide]", "values": [
      {"measurement": "lymphopoiesis in recipients", "setting": "[1]; [5]", "result": "markedly promoted lymphopoiesis"},
      {"measurement": "myeloid skewing in recipients", "setting": "[1]; [5]", "result": "suppressed myeloid skewing"},
      {"measurement": "increase of reconstitution, primary transplantation", "setting": "[1]; [6]", "result": "about 1.7 fold"},
      {"measurement": "increase of reconstitution, secondary transplantation", "setting": "[1]; [6]", "result": "about 1.5 fold"},
      {"measurement": "increase of reconstitution, tertiary transplantation", "setting": "[1]; [6]", "result": "about 1.9 fold"},
      {"measurement": "increase of number of hematopoietic stem cells", "setting": "[2]; ABC294640 10 mg/kg i.p. every other day, 14 days after first injection, FIG. 14 panel b", "result": 1.7, "unit": "fold"},
      {"measurement": "increase of CD150 HSCs (expanded HSC pool)", "setting": "[2]; FIG. 27", "result": 1.7, "unit": "fold"},
      {"measurement": "increase of LT-HSCs (expanded HSC pool)", "setting": "[2]; FIG. 27", "result": 2.1, "unit": "fold"},
      {"measurement": "quiescence of HSCs (cell cycle analysis of CD150 HSCs)", "setting": "[2]; FIG. 27", "result": "increased quiescence"},
      {"measurement": "number of hematopoietic stem cells in bone marrow", "setting": "[3]", "result": "increased remarkably"},
      {"measurement": "number of white blood cells in the peripheral blood", "setting": "[4]", "result": "significantly (*P<0.05, **P<0.01 and ***P<0.001) increased"}
    ]}
  ]
}
